Data taken from ChEMBL document CHEMBL1201862, “PubChem BioAssay data set” (2004).
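Interpolation was linear, between the two tested concentrations surrounding the appropriate level; five concentrations were tested over 48 hours in 96-well plates. GI50: concentration for 50% inhibition of growth.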 Active and inactive are the calls of the source. Rule as the data show it: active = GI50 up to about 1.1 µM and inactive = higher.

Key:
Assay in all cases: inhibition of tumour cell growth, NCI panel, 48 h
OVCAR-5 = system: OVCAR-5
MCF7 = system: MCF7
HCT-116 = system: HCT-116
IGROV-1 = system: IGROV-1
U-251 = system: U-251
BT-549 = system: BT-549
MDA-N = system: MDA-N
CCRF-CEM = system: CCRF-CEM
M14 = system: M14
HOP-92 = system: HOP-92
T47D = system: T47D
SF-268 = system: SF-268
MDA-MB-435 = system: MDA-MB-435
UO-31 = system: UO-31
NCI-H460 = system: NCI-H460
SN12C = system: SN12C
Hs-578T = system: Hs-578T
SF-539 = system: SF-539
PC-3 = system: PC-3
NCI/ADR-RES = system: NCI/ADR-RES

SMILES	GI50 (OVCAR-5)	GI50 (MCF7)	GI50 (HCT-116)	GI50 (IGROV-1)	GI50 (U-251)	GI50 (BT-549)	GI50 (MDA-N)	GI50 (CCRF-CEM)	GI50 (M14)	GI50 (HOP-92)	GI50 (T47D)	GI50 (SF-268)	GI50 (MDA-MB-435)	GI50 (UO-31)	GI50 (NCI-H460)	GI50 (SN12C)	GI50 (Hs-578T)	GI50 (SF-539)	GI50 (PC-3)	GI50 (NCI/ADR-RES)
O=C(OCc1ccccc1)N1CCNCCNCC1	> 100 µM (inactive)	> 100 µM (inactive)	> 100 µM (inactive)	> 100 µM (inactive)	> 100 µM (inactive)	> 100 µM (inactive)	> 100 µM (inactive)	> 100 µM (inactive)	> 100 µM (inactive)	> 100 µM (inactive)	> 100 µM (inactive)	> 100 µM (inactive)	> 100 µM (inactive)	> 100 µM (inactive)	> 100 µM (inactive)	> 100 µM (inactive)	> 100 µM (inactive)	> 100 µM (inactive)	> 100 µM (inactive)	> 100 µM (inactive)
CCC(C)C1NC(=O)C(NC(=O)C(CC(C)C)N(C)C(=O)[C@@H]2C=CCN2C(=O)[C@H](C)O)C(C)OC(=O)[C@H](Cc2ccc(OC)cc2)N(C)C(=O)[C@@H]2CCCN2C(=O)[C@H](CC(C)C)NC(=O)C(C)C(=O)[C@H](C(C)C)OC(=O)CC1O (stereo not given in full)	0.0137 µM (active)	0.00164 µM (active)	0.00103 µM (active)	0.00256 µM (active)	0.00131 µM (active)	0.00365 µM (active)	0.00293 µM (active)	0.00164 µM (active)	0.00188 µM (active)	0.00643 µM (active)	0.0013 µM (active)	0.00243 µM (active)	0.00277 µM (active)	0.0138 µM (active)	0.00215 µM (active)	0.00279 µM (active)	< 0.01 µM (active)	0.00139 µM (active)	0.00291 µM (active)	0.0419 µM (active)
